Assay results published in PubChem BioAssay (NCI).
Several values for one entry are separate records, joined by “and”; a condition that tells them apart may be missing. Identical values can stand only once.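 Exposure lasted 48 hours, with cells grown in 96-well plates and compounds tested at five concentrations. GI50: concentration for 50% inhibition of growth. The concentration for full growth arrest is given as TGI.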

What was measured:
Assay in all cases: NCI-60 cell line screen, 48 h
[1] = tested on: NCI-H226 lung
[2] = tested on: HS 578T breast
[3] = tested on: MCF7 breast
[4] = tested on: HOP-18 NSCLC
[5] = tested on: M19-MEL melanoma
[6] = tested on: IGROV1 ovarian
[7] = tested on: OVCAR-3 ovarian
[8] = tested on: K-562 leukemia
[9] = tested on: SW-620 colon
[10] = tested on: MOLT-4 leukemia
[11] = tested on: KM20L2 colon
[12] = tested on: SF-539 CNS
[13] = tested on: DMS 114 small cell lung
[14] = tested on: NCI-H460 lung
[15] = tested on: HOP-92 NSCLC
[16] = tested on: SNB-19 CNS
[17] = tested on: HT29 colon

**Q.** With `CCOC(=O)C(CC(C)C)NC(=O)C(Cc1ccc(N(CCCl)CCCl)cc1)NC(C)=O` (stereo not drawn) as the compound, how does the GI50 [1] read?
**A.** 12.2 µM

**Q.** What about the TGI [1] of the same compound?
**A.** 28.3 µM and 41.1 µM

**Q.** What about the TGI [2] of the same compound?
**A.** 20.2 µM

**Q.** And the TGI [3]?
**A.** 25.9 µM

**Q.** What about the TGI [4] of the same compound?
**A.** 33.7 µM

**Q.** What about the GI50 [5] of the same compound?
**A.** 6.3 µM

**Q.** What about the TGI [5] of the same compound?
**A.** 19.3 µM and 15.9 µM

**Q.** And the TGI [6]?
**A.** 33.2 µM and 29.3 µM

**Q.** And the GI50 [7]?
**A.** 15.1 µM

**Q.** What about the TGI [7] of the same compound?
**A.** 29.2 µM and 13.7 µM

**Q.** And the GI50 [8]?
**A.** 11.6 µM

**Q.** What about the TGI [8] of the same compound?
**A.** 49.7 µM and 54.6 µM

**Q.** What about the GI50 [9] of the same compound?
**A.** 11.3 µM

**Q.** What about the TGI [9] of the same compound?
**A.** 28.7 µM and 33.4 µM

**Q.** And the GI50 [10]?
**A.** 2.04 µM and 0.307 µM

**Q.** What about the TGI [10] of the same compound?
**A.** 15.5 µM and 3.31 µM

**Q.** What about the GI50 [11] of the same compound?
**A.** 13.8 µM

**Q.** What about the TGI [11] of the same compound?
**A.** 29.7 µM and 46.9 µM

**Q.** What about the TGI [12] of the same compound?
**A.** 10.6 µM and 9.63 µM

**Q.** What about the GI50 [13] of the same compound?
**A.** 1.37 µM

**Q.** What about the TGI [13] of the same compound?
**A.** 12.2 µM and 7.05 µM

**Q.** What about the TGI [14] of the same compound?
**A.** 14.1 µM and 17.6 µM

**Q.** And the GI50 [15]?
**A.** 1.25 µM

**Q.** And the TGI [15]?
**A.** 3.75 µM and 1.4 µM

**Q.** What about the GI50 [16] of the same compound?
**A.** 19.7 µM

**Q.** What about the TGI [16] of the same compound?
**A.** 81.8 µM and 42.7 µM

**Q.** And the GI50 [17]?
**A.** 14.9 µM

**Q.** And the TGI [17]?
**A.** 36.7 µM and 31.8 µM
